Source: patent US20240407371A1, “METHOD FOR THE KILLING, INACTIVATING, OR INHIBITING OF HARMFUL BLUE-GREEN ALGAE OR ALGAE CAPABLE OF CAUSING HARMFUL ALGAL BLOOM (HAB)” (priority 2021, published 2024)

Tested on: Saprolegnia diclina
Test: Atlantic salmon eggs challenged with Saprolegnia diclina trojan eggs, immersion baths
Format: in vivo, Atlantic salmon (Salmo solar L.) eggs
Conditions: 1665 ppm, 15 min bath daily

C=O [Formalin]
signs of saprolegniosis: did not suffer any sign of saprolegniosis | Average Number of Eggs Entangled (Treatment E, 10 days): 0.00 | Average Percent Eggs Entangled (Treatment E, 10 days): 0.00
